Assay results from patent US20120214818A1, “METHODS OF TREATING DIASTOLIC DYSFUNCTION AND RELATED CONDITIONS” (THE BOARD OF TRUSTEES OF THE UNIVERSITY OF ILLINOIS, priority 2009, published 2012).
Where “and” joins values, the source holds several entries; their conditions need not be identical. Equal values may be shown once.

What was measured:
DOCA-salt mice = experiment: Myofilament calcium sensitivity of fibers from mice chronically treated with ranolazine; type: in vivo, mouse; settings: fibers from hearts of DOCA-salt mice chronically treated with ranolazine vs. DOCA-salt mice
Method: A special diet contained 5 mg ranolazine, 0.3 mg P450 inhibitor, and 0.25 mg red food color was pressed into a 1-g nutritionally complete grain-based tablet (Harlan, Madison, Wis.). The control diet contained 0.3 mg P450 inhibitor and 0.25 mg yellow food color pressed into the same type of 1-g tablets. DOCA-salt and sham mice consumed daily ˜1 g of the special diet from postoperative day 11 to 18. […] We also determined Ktr, which is a measure of the rate of re-entry of cross-bridges into force generating states.

[1] = tested on: myofilaments of skinned left ventricular papillary fiber bundles; experiment: Ca2+-sensitivity of tension in skinned fiber bundles (first series, pCa-tension); type: biochemical, mouse; settings: for myofilament Ca2+ sensitivity: DOCA-salt fibers/myocytes treated with ranolazine
Method: Ca^2+-sensitivity of tension in skinned fibers: Myofilament response to Ca^2+ was measured as essentially described in Reference 24. Left ventricular papillary muscles were dissected from mouse hearts and placed in 4° C. high relaxing solution (HR), which contained 10.00 mM EGTA, 41.89 mM K-Prop, 6.57 mM MgCl2, 100.00 mM 2-[bis(2-hydroxyethyl)amino]ethanesulfonic acid (BES), 6.22 mM Na-ATP, 10.00 mM CrP, 5.00 mM Na-azide, 2.5 μg/mL Pepstatin, 1 μg/mL Leupeptin, and 50 μM PMSF, pH 7.0. The muscles were then dissected further under the microscope into uniform thin bundles of about 3-5 mm in length and 150-250 μm in diameter. The fiber bundles were placed then into a skinning solution of HR that contained 1% triton for 1-2 h at 4° C. The skinned fiber bundles were mounted with cellulose acetate glue in a force measuring apparatus and sarcomere length was adjusted to 2.2 μm using a laser diffraction pattern and width and thickness were determined for calculation of cross-sectional area. The fiber bundles were incubated in ranolazine or vehicle for 15 minutes, and then were activated at 22° C. over a series of pCa (−log of the M Ca^2+ concentration) values between pCa 8.00 and pCa 4.5. Activating solutions were prepared by mixing HR with a pCa 4.50 solution of 10.00 mM EGTA, 9.99 mM CaCl2, 22.16 mM K-Prop (K-Prop stock had 1.00 M propionic acid and 1.00 M KOH), 6.20 mM MgCl2, 100.00 mM BES, 6.29 mM Na-ATP, 10.00 mM creatine phosphate (CrP), 5.00 mM Na-azide, 2.5 μg/mL pepstatin, 1 μg/mL leupeptin, and 50 μM PMSF, pH 7.0. HR and pCa 8.00-pCa 4.50 solutions had one unit of creatine phosphokinase per 200 μL of solution. Tension generated was computed from the force/cross-sectional area and data were analyzed in the Graphpad Prism software and fit into a sigmoidal modified Hill equation in order to generate tension-pCa curves, Hill coefficients, and pCa50 (pCa value at half-maximum tension).
We measured myofilament response to Ca^2+ under two experimental conditions as described in detail below. In a first series of experiments the skinned fiber bundles were mounted in a force measuring apparatus and sarcomere length (SL) was adjusted to 2.2 μm using a laser diffraction pattern and width and thickness were determined for calculation of cross-sectional area. Force was measured over a range of pCa values Skinned fiber bundles were treated with 10 μmol/L ranolazine for 15 min prior to evaluation. In a second series of experiments under different experimental conditions, we determined steady-state Mg-ATPase activity, while simultaneously measuring isometric tension in skinned fiber bundles as a function of pCa. In all experiments, skinned fibers were treated with ranolazine or DMSO vehicle for 15 min prior to beginning either tension or tension/ATPase rate measurements. Tension generated was computed from the force/cross-sectional area and data were analyzed in the GraphPad Prism software and fit with a sigmoidal modified Hill equation in order to generate tension-pCa curves, Hill coefficients, and pCa50 (pCa value at half-maximum tension). We also determined cross-bridge kinetics employing a quick release/restretch protocol. The rate constant for force redevelopment, Ktr, provides a measure of the rate of cross-bridge entry into the force generating state. In all experiments, only fiber bundles retaining more than 80% of their initial maximum tension were included in the analysis. […]

For COc1ccccc1OCC(O)CN1CCN(CC(=O)Nc2c(C)cccc2C)CC1 (stereo not drawn) [ranolazine], the “maximal tension in response to Ca2+” value (DOCA-salt mice) was “significantly reduces maximal tension”, the Maximum Tension ([1]; DOCA-salt fibers treated with ranolazine (FIG. 11)) was 36.03±1.50 mN/mm^2 and the “myofilament Ca2+ sensitivity” value [1] was “returned the DOCA-salt myofilament sensitivity to levels similar to sham fibers”. The “myofilament Ca2+ sensitivity” value ([1]; listed as Ranolazine) was “returned DOCA-salt myofilament sensitivity to levels similar to sham myocytes”, the Hill n ([1]; fibers from DOCA mice treated with 10 μmol/L ranolazine 15 min, listed as ranalozine) was 3.71+/−1.0 and 3.71±1.0 and the “pCa50 (pCa-tension relations normalized to maximum tension)” value ([1]; fibers from DOCA mice treated with 10 μmol/L ranolazine 15 min, sarcomere length 2.2 μm, 22° C., listed as ranalozine) was 6.0+/−0.03 and 6.0±0.03.
